# Assay results reported in PubChem BioAssay AID330 (DTP/NCI, 2004).
# Values joined by “and” are separate entries in the source; they are usually repeats but may differ in a detail not shown here. Identical values can stand only once. Toxic doses and inconclusive results are not listed.
# Test system: P388 leukemia ip, CD2F1 mice, survival T/C
# Assay: NCI In Vivo Anticancer Drug Screen. Data for tumor model P388 Leukemia (intraperitoneal) in CD2F1 (CDF1) mice
# Settings: endpoint: median survival time, higher = longer survival
# Method in brief: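 Mice carrying the transplanted tumor received test compound or vehicle. Survival was recorded in each group, and the value is the treated-group measurement divided by that of the vehicle-treated control group.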
# [1] = dose: 50.0 mg/kg/injection, schedule: Q01DX009 (ip), vehicle: saline with Tween-80
# [2] = dose: 100.0 mg/kg/injection, schedule: Q01DX009 (ip), vehicle: saline with Tween-80
# [3] = dose: 200.0 mg/kg/injection, schedule: Q01DX009 (ip), vehicle: saline with Tween-80
# [4] = dose: 50.0 mg/kg/injection, schedule: Q01DX005 (ip), vehicle: Klucel (hydroxypropylcellulose) (HPC)
# [5] = dose: 100.0 mg/kg/injection, schedule: Q01DX005 (ip), vehicle: Klucel (hydroxypropylcellulose) (HPC)
# [6] = dose: 12.5 mg/kg/injection, schedule: Q01DX009 (ip), vehicle: Klucel (hydroxypropylcellulose) (HPC)
# [7] = dose: 25.0 mg/kg/injection, schedule: Q01DX009 (ip), vehicle: Klucel (hydroxypropylcellulose) (HPC)
# [8] = dose: 50.0 mg/kg/injection, schedule: Q01DX009 (ip), vehicle: Klucel (hydroxypropylcellulose) (HPC)
# [9] = dose: 50.0 mg/kg/injection, schedule: Q01DX005 (ip), vehicle: saline
# [10] = dose: 100.0 mg/kg/injection, schedule: Q01DX005 (ip), vehicle: saline
# [11] = dose: 200.0 mg/kg/injection, schedule: Q01DX005 (ip), vehicle: saline
# [12] = dose: 100.0 mg/kg/injection, schedule: Q01DX009 (ip), vehicle: Klucel (hydroxypropylcellulose) (HPC)
# [13] = dose: 200.0 mg/kg/injection, schedule: Q01DX009 (ip), vehicle: Klucel (hydroxypropylcellulose) (HPC)
# [14] = dose: 25.0 mg/kg/injection, schedule: Q01DX009 (ip), vehicle: saline
# [15] = dose: 50.0 mg/kg/injection, schedule: Q01DX009 (ip), vehicle: saline
# [16] = dose: 100.0 mg/kg/injection, schedule: Q04DX003 (ip), vehicle: saline with Tween-80
# [17] = dose: 200.0 mg/kg/injection, schedule: Q04DX003 (ip), vehicle: saline with Tween-80
# [18] = dose: 50.0 mg/kg/injection, schedule: Q01DX005 (ip), vehicle: saline with Tween-80
# [19] = dose: 100.0 mg/kg/injection, schedule: Q01DX005 (ip), vehicle: saline with Tween-80
smiles,measurement,setting,value
CC(C)(C)C1(c2ccccc2)C(=O)c2ccccc2C1=O,T/C,"dose: 100.0 mg/kg/injection, schedule: Q04DX002 (ip), vehicle: saline",100 % of control
same,T/C,"dose: 200.0 mg/kg/injection, schedule: Q04DX002 (ip), vehicle: saline",97 % of control
same,T/C,"dose: 400.0 mg/kg/injection, schedule: Q04DX002 (ip), vehicle: saline",101 % of control
CCCCCCCCCOCC(=O)OC,T/C,[1],105 % of control
same,T/C,[2],106 % of control
same,T/C,[3],101 % of control
COc1ccc2c(c1OC)/C(=C/c1ccccc1)OC2C1c2c(cc3c(c2OC)OCO3)CCN1C (centres undefined),T/C,[4],104 % of control
same,T/C,[5],105 % of control
same,T/C,"dose: 200.0 mg/kg/injection, schedule: Q01DX005 (ip), vehicle: Klucel (hydroxypropylcellulose) (HPC)",96 % of control
S=C(Cl)N1CCN(C(=S)Cl)CC1,T/C,[6],104 % of control
same,T/C,[7],112 % of control
same,T/C,[8],110 % of control and 93 % of control
OCCN(CCO)Cc1nc2ccc(Cl)cc2[nH]1,T/C,[9],98 % of control
same,T/C,[10],91 % of control
same,T/C,[11],95 % of control
CC(=O)OC1CCC2(C)C(C1)CC(OC(C)=O)C1C2CC(OC(C)=O)C2(C)C(/C(C)=C\C=C(c3ccccc3)c3ccccc3)CCC12 (centres undefined),T/C,[8],103 % of control
same,T/C,[12],112 % of control
same,T/C,[13],121 % of control
CCOC(=O)C(Cc1csc2ccc(Cl)cc12)NC(C)=O (centres undefined),T/C,[8],94 % of control
same,T/C,[12],95 % of control
same,T/C,[13],99 % of control
Cc1cc2c(cc1C)n1c(=O)n(C)c(=O)c(C#N)c1n2C,T/C,"dose: 7.5 mg/kg/injection, schedule: Q01DX005 (ip), vehicle: saline with Tween-80",100 % of control
same,T/C,"dose: 15.0 mg/kg/injection, schedule: Q01DX005 (ip), vehicle: saline with Tween-80",101 % of control
COc1ccc(NC(CCN2CCN(CCC(=NC(C)(C)C)Nc3ccc(OC)cc3)CC2)=NC(C)(C)C)cc1,T/C,"dose: 25.0 mg/kg/injection, schedule: Q01DX009 (ip), vehicle: saline with Tween-80",97 % of control
same,T/C,[14],110 % of control
same,T/C,[4],98 % of control
same,T/C,[8],110 % of control
same,T/C,[1],97 % of control
same,T/C,[15],109 % of control
same,T/C,[5],103 % of control
same,T/C,[12],110 % of control
same,T/C,[2],107 % of control
same,T/C,"dose: 100.0 mg/kg/injection, schedule: Q01DX009 (ip), vehicle: saline",97 % of control
same,T/C,[3],116 % of control
Cc1ccc2c(c1)=N/C(=N/c1[nH]c(O)c3ccccc13)N=2,T/C,[1],100 % of control and 96 % of control
same,T/C,[2],99 % of control
CCCCCCCCC1(O)OC(=O)C(C)=C1C (centres undefined),T/C,"dose: 12.5 mg/kg/injection, schedule: Q04DX003 (ip), vehicle: saline with Tween-80",100 % of control
same,T/C,"dose: 25.0 mg/kg/injection, schedule: Q04DX003 (ip), vehicle: saline with Tween-80",100 % of control
same,T/C,"dose: 50.0 mg/kg/injection, schedule: Q04DX003 (ip), vehicle: saline with Tween-80",103 % of control
CCCCCCCCCCCCCCCC[N+]1([O-])CCCCCC1,T/C,[15],93 % of control
CC[C@H](CC[C@@H](C)[C@H]1CC[C@H]2[C@@H]3CC=C4C[C@@H](OC(C)=O)CC[C@]4(C)[C@H]3CC[C@]12C)C(C)C,T/C,"dose: 6.25 mg/kg/injection, schedule: Q01DX009 (ip), vehicle: Klucel (hydroxypropylcellulose) (HPC)",99 % of control and 110 % of control
same,T/C,[6],105 % of control and 107 % of control
same,T/C,[7],104 % of control and 92 % of control
same,T/C,[8],98 % of control and 105 % of control
same,T/C,"dose: 75.0 mg/kg/injection, schedule: Q01DX009 (ip), vehicle: Klucel (hydroxypropylcellulose) (HPC)",100 % of control and 92 % of control
O=C1C(Cl)=C(N=Nc2c(Cl)c(O)c3ccccc3c2O)C(=O)c2ccccc21,T/C,"dose: 1.56 mg/kg/injection, schedule: Q01DX009 (ip), vehicle: saline",101 % of control and 111 % of control
same,T/C,"dose: 3.12 mg/kg/injection, schedule: Q01DX009 (ip), vehicle: saline",103 % of control and 108 % of control
same,T/C,"dose: 6.25 mg/kg/injection, schedule: Q01DX009 (ip), vehicle: saline",108 % of control and 109 % of control
same,T/C,"dose: 12.5 mg/kg/injection, schedule: Q01DX009 (ip), vehicle: saline",107 % of control and 117 % of control
same,T/C,[14],102 % of control and 109 % of control
same,T/C,"dose: 25.0 mg/kg/injection, schedule: Q01DX010 (ip), vehicle: saline",109 % of control
same,T/C,[15],90 % of control and 97 % of control
same,T/C,"dose: 50.0 mg/kg/injection, schedule: Q01DX010 (ip), vehicle: saline",100 % of control
same,T/C,"dose: 100.0 mg/kg/injection, schedule: Q01DX010 (ip), vehicle: saline",109 % of control
CCN1CCn2c(c(COC(=O)NC(C)C)c(COC(=O)NC(C)C)c2-c2ccc(Cl)c(Cl)c2)C1,T/C,"dose: 6.25 mg/kg/injection, schedule: Q01DX009 (ip), vehicle: distilled water + Tween-80",116 % of control
same,T/C,"dose: 12.5 mg/kg/injection, schedule: Q01DX009 (ip), vehicle: distilled water + Tween-80",122 % of control
same,T/C,"dose: 18.8 mg/kg/injection, schedule: Q01DX009 (ip), vehicle: distilled water + Tween-80",97 % of control
same,T/C,"dose: 25.0 mg/kg/injection, schedule: Q01DX009 (ip), vehicle: distilled water + Tween-80",116 % of control
same,T/C,"dose: 37.5 mg/kg/injection, schedule: Q01DX009 (ip), vehicle: distilled water + Tween-80",114 % of control
Cc1ccc(NC(=O)N(CCCCl)N=O)cc1,T/C,[1],86 % of control
same,T/C,[16],95 % of control
same,T/C,[3],100 % of control
same,T/C,[17],90 % of control
O=C1C(=Nc2ccccc2)Cc2ccccc21,T/C,[16],100 % of control
same,T/C,[17],96 % of control
same,T/C,"dose: 400.0 mg/kg/injection, schedule: Q04DX003 (ip), vehicle: saline with Tween-80",100 % of control
CNC1C(O)C2Oc3c(cc(O)c4c3C(=O)c3cc5c(c(O)c3C4=O)C(OC3OC(C)C(OC)C(C)(OC)C3OC)CC(C)(O)C5C(=O)OC)C(C)(O2)C1O (centres undefined),T/C,"dose: 3.12 mg/kg/injection, schedule: Q04DX003 (ip), vehicle: other",99 % of control
same,T/C,"dose: 6.25 mg/kg/injection, schedule: Q04DX003 (ip), vehicle: other",115 % of control
same,T/C,"dose: 12.5 mg/kg/injection, schedule: Q04DX003 (ip), vehicle: other",150 % of control
same,T/C,"dose: 25.0 mg/kg/injection, schedule: Q04DX003 (ip), vehicle: other",160 % of control
O=C1C=C(c2ccccc2)S(=O)(=O)c2ccc(O)cc21,T/C,[18],121 % of control
same,T/C,[19],110 % of control
CCCCCCCCCCCC(=O)c1c(O)c2ccccc2oc1=O,T/C,[18],95 % of control
same,T/C,[19],94 % of control
CCOP(=O)(CC=O)OCC,T/C,"dose: 60.0 mg/kg/injection, schedule: Q01DX005 (ip), vehicle: saline",95 % of control
same,T/C,"dose: 120.0 mg/kg/injection, schedule: Q01DX005 (ip), vehicle: saline",100 % of control
same,T/C,"dose: 240.0 mg/kg/injection, schedule: Q01DX005 (ip), vehicle: saline",101 % of control
CN=C(N)N/N=C(\c1ccccc1)c1ccc(I)cc1,T/C,"dose: 25.0 mg/kg/injection, schedule: Q04DX002 (ip), vehicle: saline with Tween-80",104 % of control
same,T/C,"dose: 50.0 mg/kg/injection, schedule: Q04DX002 (ip), vehicle: saline with Tween-80",107 % of control
same,T/C,"dose: 100.0 mg/kg/injection, schedule: Q04DX002 (ip), vehicle: saline with Tween-80",107 % of control
CC1(CCl)CC1(Cl)Cl (centres undefined),T/C,[9],103 % of control
same,T/C,[10],103 % of control
same,T/C,[11],104 % of control
C=C(CN(C)C)C(=O)c1ccc(OC)cc1OC,T/C,"dose: 1.9 mg/kg/injection, schedule: Q04DX002 (ip), vehicle: saline",95 % of control
same,T/C,"dose: 3.8 mg/kg/injection, schedule: Q04DX002 (ip), vehicle: saline",106 % of control
same,T/C,"dose: 7.5 mg/kg/injection, schedule: Q04DX002 (ip), vehicle: saline",102 % of control and 98 % of control
CC/C(=C(/CC)c1ccc(OCC(=O)N/N=C2\CCC3C4CCc5cc(O)ccc5C4=CCC23C)cc1)c1ccc(OCC(=O)N/N=C2/CCC3C4CCc5cc(O)ccc5C4=CCC23C)cc1 (centres undefined),T/C,"dose: 50.0 mg/kg/injection, schedule: Q01DX001 (ip), vehicle: Klucel (hydroxypropylcellulose) (HPC)",96 % of control
same,T/C,"dose: 100.0 mg/kg/injection, schedule: Q01DX001 (ip), vehicle: Klucel (hydroxypropylcellulose) (HPC)",95 % of control
same,T/C,"dose: 200.0 mg/kg/injection, schedule: Q01DX001 (ip), vehicle: Klucel (hydroxypropylcellulose) (HPC)",87 % of control
